Laboratory results as given in paper PMC12287522 (Scientific Reports, 2025).

Tests used:
[1] = system: human colorectal cancer cell line (HCT116); test: MTT assay, HCT116 cell line; type: cell-based; conditions: for IC50: Homo sapiens, HCT-116, read-out: Anticancer activity (IC50) HCT116; for anticancer action against HCT116 (in words): SAR discussion
[2] = system: human lung adenocarcinoma cell line (A549); test: MTT assay, A549 cell line; type: cell-based; conditions: SAR discussion

Row | SMILES | IC50 [1] [µM] | anticancer action against HCT116 (in words) [1] | inhibitory potential against A549 (in words) [2]
1 | O=C(Cn1cc(COc2ncnc3[nH]cnc23)nn1)NCc1ccc(Cl)cc1 [5j, 2-(4-(((9 H-purin-6-yl)oxy)methyl)-1 H-1,2,3-triazol-1-yl)-N-(4-chlorobenzyl)acetamide] | 22.6 ± 0.38 | – | –
2 | COc1cccc(NC(=O)Cn2cc(COc3ncnc4[nH]cnc34)nn2)c1 [5 g, 2-(4-(((9 H-purin-6-yl)oxy)methyl)-1 H-1,2,3-triazol-1-yl)-N-(3-methoxyphenyl)acetamide] | > 100 | did not exhibit anticancer action | –
3 | Cc1ccc(NC(=O)Cn2cc(COc3ncnc4[nH]cnc34)nn2)c(C)c1 [5d, 2-(4-(((9 H-purin-6-yl)oxy)methyl)-1 H-1,2,3-triazol-1-yl)-N-(2,4-dimethylphenyl)acetamide] | – | did not exhibit anticancer action | –
4 | COc1ccc(CNC(=O)Cn2cc(COc3ncnc4[nH]cnc34)nn2)cc1 [5k, 2-(4-(((9 H-purin-6-yl)oxy)methyl)-1 H-1,2,3-triazol-1-yl)-N-(4-methoxybenzyl)acetamide] | – | did not exhibit anticancer action | –
5 | Cc1cccc(NC(=O)Cn2cc(COc3ncnc4[nH]cnc34)nn2)c1 [5c, 2-(4-(((9 H-purin-6-yl)oxy)methyl)-1 H-1,2,3-triazol-1-yl)-N-(m-tolyl)acetamide] | – | – | significantly reduced

More lines, main results first:

Row | IC50 [1] [µM] | SMILES | anticancer action against HCT116 (in words) [1] | inhibitory potential against A549 (in words) [2]
6 | 6.23 ± 0.23 | Cc1cncc(NC(=O)Cn2cc(COc3ncnc4[nH]cnc34)nn2)c1 [5a, 2-(4-(((9 H-purin-6-yl)oxy)methyl)-1 H-1,2,3-triazol-1-yl)-N-(5-methylpyridin-3-yl)acetamide] | – | –
7 | 12.3 ± 0.52 | O=C(Cn1cc(COc2ncnc3[nH]cnc23)nn1)Nc1ccc(O)cc1 [5 h, 2-(4-(((9 H-purin-6-yl)oxy)methyl)-1 H-1,2,3-triazol-1-yl)-N-(4-hydroxyphenyl)acetamide] | moderately inhibited | –
8 | 6.11 ± 0.29 | O=C(Cn1cc(COc2ncnc3[nH]cnc23)nn1)Nc1ccc(F)c(Cl)c1 [5e, 2-(4-(((9 H-purin-6-yl)oxy)methyl)-1 H-1,2,3-triazol-1-yl)-N-(3-chloro-4-fluorophenyl)acetamide] | – | –
9 | 13.9 ± 0.19 | O=C(Cn1cc(COc2ncnc3[nH]cnc23)nn1)Nc1ccc([N+](=O)[O-])cc1 [5f, 2-(4-(((9 H-purin-6-yl)oxy)methyl)-1 H-1,2,3-triazol-1-yl)-N-(4-nitrophenyl)acetamide] | – | significantly reduced
10 | 7.88 ± 0.6 | O=C(Cn1cc(COc2ncnc3[nH]cnc23)nn1)NCc1ccc(O)cc1 [5i, 2-(4-(((9 H-purin-6-yl)oxy)methyl)-1 H-1,2,3-triazol-1-yl)-N-(4-hydroxybenzyl)acetamide] | moderately inhibited | significantly reduced
11 | 15.6 ± 0.45 | O=Cc1cccc(NC(=O)Cn2cc(COc3ncnc4[nH]cnc34)nn2)c1 [5b, 2-(4-(((9 H-purin-6-yl)oxy)methyl)-1 H-1,2,3-triazol-1-yl)-N-(3-formylphenyl)acetamide] | – | –
12 | 7.27 ± 0.39 | COc1cccc2c1C(=O)c1c(O)c3c(c(O)c1C2=O)C[C@@](O)(C(=O)CO)C[C@@H]3O[C@H]1C[C@H](N)[C@H](O)[C@H](C)O1 [DXN, doxorubicin, reference compound] | – | –
